ChEMBL document CHEMBL4842377, “Synthesis and biological evaluation of selective histone deacetylase 6 inhibitors as multifunctional agents against Alzheimer's disease” (Eur J Med Chem, 2021)
Calls of active or inactive are those of the source. The calls are words filed in the database; no cut-off is given here.

What was measured:
[1] = tested on: SH-SY5Y; experiment: Neuroprotective activity against amyloid beta (1 to 42)-induced cytotoxicity in human SH-SY5Y cells assessed as increase in cell viability at 3 uM after 24 hrs by MTT assay (reference value: 60.4%); format: functional
[2] = molecular target: T1, Protein deacetylase HDAC6 (Homo sapiens, UniProt Q9UBN7); experiment: Inhibition of human HDAC6 using fluorogenic substrate incubated for 1 hrs by fluorescence plate reader assay
T1 sequence (Q9UBN7 whole entry): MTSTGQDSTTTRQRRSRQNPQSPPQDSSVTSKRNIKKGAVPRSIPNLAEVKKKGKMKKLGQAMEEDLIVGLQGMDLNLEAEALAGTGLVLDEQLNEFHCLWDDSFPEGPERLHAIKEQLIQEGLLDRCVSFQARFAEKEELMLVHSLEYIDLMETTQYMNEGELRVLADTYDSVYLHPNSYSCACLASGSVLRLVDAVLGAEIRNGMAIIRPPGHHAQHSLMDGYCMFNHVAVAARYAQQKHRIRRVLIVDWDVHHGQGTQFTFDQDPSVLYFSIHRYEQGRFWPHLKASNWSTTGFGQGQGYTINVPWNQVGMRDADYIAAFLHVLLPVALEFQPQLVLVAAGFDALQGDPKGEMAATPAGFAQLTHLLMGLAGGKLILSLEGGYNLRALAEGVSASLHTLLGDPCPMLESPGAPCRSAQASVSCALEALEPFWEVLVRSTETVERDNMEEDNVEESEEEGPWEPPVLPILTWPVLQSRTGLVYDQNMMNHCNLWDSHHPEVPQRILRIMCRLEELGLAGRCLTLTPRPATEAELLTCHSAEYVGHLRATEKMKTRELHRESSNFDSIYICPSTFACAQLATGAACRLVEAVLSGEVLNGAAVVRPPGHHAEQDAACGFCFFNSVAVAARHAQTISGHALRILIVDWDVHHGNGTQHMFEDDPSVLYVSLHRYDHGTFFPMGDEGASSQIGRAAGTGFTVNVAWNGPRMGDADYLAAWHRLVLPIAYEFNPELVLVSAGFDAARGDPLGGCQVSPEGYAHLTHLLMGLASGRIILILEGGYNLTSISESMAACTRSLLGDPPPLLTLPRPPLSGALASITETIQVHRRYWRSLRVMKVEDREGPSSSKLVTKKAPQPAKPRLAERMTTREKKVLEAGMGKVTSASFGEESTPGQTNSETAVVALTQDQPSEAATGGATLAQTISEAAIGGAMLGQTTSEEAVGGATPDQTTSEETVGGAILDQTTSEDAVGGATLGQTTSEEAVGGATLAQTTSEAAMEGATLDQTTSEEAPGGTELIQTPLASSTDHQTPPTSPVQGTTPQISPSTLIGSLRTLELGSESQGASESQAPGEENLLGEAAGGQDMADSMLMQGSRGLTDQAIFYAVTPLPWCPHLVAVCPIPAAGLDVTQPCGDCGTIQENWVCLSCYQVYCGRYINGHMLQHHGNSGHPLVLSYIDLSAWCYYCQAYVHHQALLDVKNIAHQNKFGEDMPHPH

[3] = molecular target: T2, Polyamine deacetylase HDAC10 (Homo sapiens, UniProt Q969S8); experiment: Inhibition of human HDAC10 using fluorogenic substrate incubated for 1 hrs by fluorescence plate reader assay
T2 sequence (Q969S8 whole entry): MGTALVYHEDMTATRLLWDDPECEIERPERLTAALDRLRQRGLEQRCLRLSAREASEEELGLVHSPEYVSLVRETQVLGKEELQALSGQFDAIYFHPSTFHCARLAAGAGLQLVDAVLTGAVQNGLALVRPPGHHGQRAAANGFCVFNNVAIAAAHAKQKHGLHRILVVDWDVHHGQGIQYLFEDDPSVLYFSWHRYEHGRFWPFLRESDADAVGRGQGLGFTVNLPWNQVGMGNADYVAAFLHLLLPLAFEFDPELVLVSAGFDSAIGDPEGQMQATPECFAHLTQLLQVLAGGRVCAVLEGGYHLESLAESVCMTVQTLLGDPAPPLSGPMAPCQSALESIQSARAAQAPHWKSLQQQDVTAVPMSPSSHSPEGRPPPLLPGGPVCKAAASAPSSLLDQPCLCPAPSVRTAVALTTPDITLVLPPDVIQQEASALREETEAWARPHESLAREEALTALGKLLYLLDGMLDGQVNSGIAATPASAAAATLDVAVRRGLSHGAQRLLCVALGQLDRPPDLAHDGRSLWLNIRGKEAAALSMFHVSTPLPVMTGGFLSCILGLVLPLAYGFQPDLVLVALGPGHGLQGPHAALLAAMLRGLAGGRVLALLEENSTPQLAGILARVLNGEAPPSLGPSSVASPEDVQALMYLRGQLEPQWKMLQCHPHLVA

[4] = molecular target: Histone deacetylase 2 (Homo sapiens, UniProt Q92769); experiment: Inhibition of human HDAC2 using fluorogenic substrate incubated for 1 hrs by fluorescence plate reader assay
Sequence of Histone deacetylase 2 (Q92769 whole entry): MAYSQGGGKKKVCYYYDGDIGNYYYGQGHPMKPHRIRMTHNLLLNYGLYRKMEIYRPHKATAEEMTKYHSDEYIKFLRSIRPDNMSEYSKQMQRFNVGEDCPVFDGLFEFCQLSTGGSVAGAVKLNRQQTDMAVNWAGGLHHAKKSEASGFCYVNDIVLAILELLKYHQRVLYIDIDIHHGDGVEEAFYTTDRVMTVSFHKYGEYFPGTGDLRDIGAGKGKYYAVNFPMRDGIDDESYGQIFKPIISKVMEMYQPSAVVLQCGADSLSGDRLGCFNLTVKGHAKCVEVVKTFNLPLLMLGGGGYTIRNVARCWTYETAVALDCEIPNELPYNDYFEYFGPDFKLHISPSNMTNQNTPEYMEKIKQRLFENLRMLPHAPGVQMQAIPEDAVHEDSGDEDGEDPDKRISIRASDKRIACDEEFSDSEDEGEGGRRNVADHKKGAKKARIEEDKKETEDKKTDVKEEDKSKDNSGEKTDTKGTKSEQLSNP

[5] = molecular target: T3, Histone deacetylase 8 (Homo sapiens, UniProt Q9BY41); experiment: Inhibition of human HDAC8 using fluorogenic substrate incubated for 1 hrs by fluorescence plate reader assay
T3 sequence (Q9BY41 whole entry): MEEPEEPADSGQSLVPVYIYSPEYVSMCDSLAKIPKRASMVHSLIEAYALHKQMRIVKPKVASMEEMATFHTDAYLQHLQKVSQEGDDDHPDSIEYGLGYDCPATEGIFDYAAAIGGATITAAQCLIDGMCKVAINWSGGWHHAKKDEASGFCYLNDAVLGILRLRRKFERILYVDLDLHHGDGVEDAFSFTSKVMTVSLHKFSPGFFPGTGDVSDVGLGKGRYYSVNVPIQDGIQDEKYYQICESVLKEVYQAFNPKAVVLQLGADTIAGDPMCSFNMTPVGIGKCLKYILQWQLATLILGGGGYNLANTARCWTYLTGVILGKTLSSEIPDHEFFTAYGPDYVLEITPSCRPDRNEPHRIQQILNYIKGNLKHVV

[6] = tested on: SH-SY5Y; experiment: Induction of neurogenesis in human SH-SY5Y cells assessed as fold induction of GAP-43 mRNA expression at 10 uM measured after 24 hrs by RT-PCR analysis relative to retinoic acid; format: functional
[7] = tested on: SH-SY5Y; experiment: Induction of neurogenesis in human SH-SY5Y cells assessed as induction of N-myc mRNA expression at 10 uM measured after 24 hrs by RT-PCR analysis relative to control; format: functional
[8] = tested on: SH-SY5Y; experiment: Induction of neurogenesis in human SH-SY5Y cells assessed as induction of GAP-43 mRNA expression at 10 uM measured after 24 hrs by RT-PCR analysis relative to control; format: functional
[9] = tested on: SH-SY5Y; experiment: Induction of neurogenesis in human SH-SY5Y cells assessed as fold induction of MAP2 mRNA expression at 10 uM measured after 24 hrs by RT-PCR analysis relative to retinoic acid; format: functional
[10] = molecular target: T4, Histone deacetylase 11 (Homo sapiens, UniProt Q96DB2); experiment: Inhibition of human HDAC11 using fluorogenic substrate incubated for 1 hrs by fluorescence plate reader assay
T4 sequence (Q96DB2 whole entry): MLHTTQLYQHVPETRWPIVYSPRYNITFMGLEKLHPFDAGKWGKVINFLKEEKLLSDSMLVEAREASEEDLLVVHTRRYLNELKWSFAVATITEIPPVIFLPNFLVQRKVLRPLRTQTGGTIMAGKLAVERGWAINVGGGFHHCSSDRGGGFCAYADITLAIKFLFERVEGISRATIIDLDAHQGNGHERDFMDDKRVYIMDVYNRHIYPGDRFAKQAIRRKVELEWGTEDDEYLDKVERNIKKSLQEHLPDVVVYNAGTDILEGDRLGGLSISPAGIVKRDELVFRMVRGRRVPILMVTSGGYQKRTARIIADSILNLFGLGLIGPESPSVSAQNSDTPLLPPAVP

[11] = molecular target: Histone deacetylase 4 (Homo sapiens, UniProt P56524); experiment: Inhibition of human HDAC4 using fluorogenic substrate incubated for 1 hrs by fluorescence plate reader assay
Sequence of Histone deacetylase 4 (P56524 whole entry): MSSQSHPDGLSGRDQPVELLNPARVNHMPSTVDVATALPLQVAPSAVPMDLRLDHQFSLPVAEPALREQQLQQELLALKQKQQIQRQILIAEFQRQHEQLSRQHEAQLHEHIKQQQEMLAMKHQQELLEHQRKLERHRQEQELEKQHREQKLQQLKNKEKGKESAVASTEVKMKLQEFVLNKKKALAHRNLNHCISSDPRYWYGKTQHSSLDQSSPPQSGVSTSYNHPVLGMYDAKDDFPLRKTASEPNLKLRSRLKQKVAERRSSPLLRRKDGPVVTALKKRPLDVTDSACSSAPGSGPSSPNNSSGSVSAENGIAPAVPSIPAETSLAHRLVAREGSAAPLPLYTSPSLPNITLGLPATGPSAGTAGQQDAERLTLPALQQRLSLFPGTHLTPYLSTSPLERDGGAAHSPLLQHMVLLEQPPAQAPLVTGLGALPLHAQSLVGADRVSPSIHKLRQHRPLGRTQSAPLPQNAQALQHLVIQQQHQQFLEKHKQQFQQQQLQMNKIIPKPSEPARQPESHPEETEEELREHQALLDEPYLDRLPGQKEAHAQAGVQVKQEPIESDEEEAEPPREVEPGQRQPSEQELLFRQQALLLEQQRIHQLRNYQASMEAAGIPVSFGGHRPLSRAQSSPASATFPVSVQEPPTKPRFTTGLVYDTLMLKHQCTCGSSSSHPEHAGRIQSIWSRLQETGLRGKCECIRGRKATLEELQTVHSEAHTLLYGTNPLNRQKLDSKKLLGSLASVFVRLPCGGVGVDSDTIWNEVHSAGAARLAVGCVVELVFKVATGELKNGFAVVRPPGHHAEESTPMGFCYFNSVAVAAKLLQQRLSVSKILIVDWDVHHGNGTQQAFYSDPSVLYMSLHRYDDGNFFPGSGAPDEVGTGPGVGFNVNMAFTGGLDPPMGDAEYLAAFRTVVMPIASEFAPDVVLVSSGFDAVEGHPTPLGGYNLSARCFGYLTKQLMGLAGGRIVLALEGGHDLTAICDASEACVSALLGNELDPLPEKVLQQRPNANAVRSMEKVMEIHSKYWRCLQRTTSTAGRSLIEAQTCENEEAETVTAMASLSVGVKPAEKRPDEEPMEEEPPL

[12] = tested on: SH-SY5Y; experiment: Induction of neurogenesis in human SH-SY5Y cells assessed as induction of MAP2 mRNA expression at 10 uM measured after 24 hrs by RT-PCR analysis relative to control; format: functional
[13] = tested on: SH-SY5Y; experiment: Neuroprotective activity against Cu2+/amyloid beta (1 to 42)-induced toxicity in human SH-SY5Y cells assessed as increase in cell viability at 3 uM after 24 hrs by MTT assay (reference value: 47.2%); format: functional
[14] = tested on: SH-SY5Y; experiment: Cytotoxicity against human SH-SY5Y cells assessed as cell viability incubated for 24 hrs by MTT assay; format: cell-based
[15] = tested on: SH-SY5Y; experiment: Induction of neurogenesis in human SH-SY5Y cells assessed as fold induction of N-myc mRNA expression at 10 uM measured after 24 hrs by RT-PCR analysis relative to retinoic acid; format: functional
[16] = molecular target: Histone deacetylase 1 (Homo sapiens, UniProt Q13547); experiment: Inhibition of human HDAC1 using fluorogenic substrate incubated for 1 hrs by fluorescence plate reader assay
Sequence of Histone deacetylase 1 (Q13547 whole entry, the tested form may be a part): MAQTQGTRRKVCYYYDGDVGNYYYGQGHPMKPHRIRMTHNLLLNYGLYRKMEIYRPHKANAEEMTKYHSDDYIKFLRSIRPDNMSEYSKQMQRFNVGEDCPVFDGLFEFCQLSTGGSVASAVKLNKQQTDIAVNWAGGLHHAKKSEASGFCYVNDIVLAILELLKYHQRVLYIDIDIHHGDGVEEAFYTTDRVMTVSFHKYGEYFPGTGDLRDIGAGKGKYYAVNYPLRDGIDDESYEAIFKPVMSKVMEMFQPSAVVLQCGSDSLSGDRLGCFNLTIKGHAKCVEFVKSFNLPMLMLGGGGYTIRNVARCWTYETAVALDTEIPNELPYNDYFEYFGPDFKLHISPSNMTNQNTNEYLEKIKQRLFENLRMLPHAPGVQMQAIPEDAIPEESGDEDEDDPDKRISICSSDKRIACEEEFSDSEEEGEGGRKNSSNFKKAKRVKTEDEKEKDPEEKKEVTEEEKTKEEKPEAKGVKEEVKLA

[17] = Inhibition of Cu2+ induced amyloid beta (1 to 42 residues) (unknown origin) aggregation by measuring reduction in fluorescence intensity at 20 uM after 24 hrs by thioflavin-T fluorescence method relative to control
[18] = Disaggregation of Cu2+ induced amyloid beta (1 to 42 residues) (unknown origin) aggregation measuring reduction in fluorescence intensity at 20 uM after 24 hrs by thioflavin-T fluorescence method relative to control; design: scale not given: the % may be the effect or the level left
[19] = species: Homo sapiens; experiment: Selectivity ratio of IC50 for human HDAC6 to IC50 for human HDAC2
[20] = molecular target: T5, Protein deacetylase HDAC6 (Homo sapiens) (UniProt Q9UBN7); experiment: Inhibition of HDAC6 in human SH-SY5Y cells assessed as reduction in tau phosphorylation at Ser396 residue at 20 uM by Western blot analysis; format: cell-based
T5 sequence (whole entry): T1 sequence (Q9UBN7 whole entry)

[21] = molecular target: T5, Protein deacetylase HDAC6 (Homo sapiens); experiment: Inhibition of HDAC6 in human SH-SY5Y cells assessed as increase in acetylated histone level measured after 24 hrs by Western blot analysis; format: cell-based
[22] = species: Homo sapiens; experiment: Selectivity ratio of IC50 for human HDAC6 to IC50 for human HDAC10
[23] = species: Homo sapiens; experiment: Selectivity ratio of IC50 for human HDAC6 to IC50 for human HDAC8
[24] = tested on: SH-SY5Y; experiment: Induction of neurite outgrowth in human SH-SY5Y cells at 10 uM incubated for 3 days by inverted microscopy; format: functional, cell-based; conditions: time 3.0 day
[25] = species: Homo sapiens; experiment: Selectivity ratio of IC50 for human HDAC6 to IC50 for human HDAC1
[26] = species: Homo sapiens; experiment: Selectivity ratio of IC50 for human HDAC6 to IC50 for human HDAC11
[27] = molecular target: T5, Protein deacetylase HDAC6 (Homo sapiens); experiment: Inhibition of HDAC6 in human SH-SY5Y cells assessed as increase in acetylated alpha tubulin level measured after 24 hrs by Western blot analysis; format: cell-based; conditions: dose 0.25-1 µM
[28] = species: Homo sapiens; experiment: Selectivity ratio of IC50 for human HDAC6 to IC50 for human HDAC4
[29] = molecular target: T5, Protein deacetylase HDAC6 (Homo sapiens); experiment: Inhibition of HDAC6 in human SH-SY5Y cells assessed as reduction in tau phosphorylation at Ser396 residue by Western blot analysis; format: cell-based

COc1cc(/C=C/C(=O)CC(=O)/C=C/c2ccc(O)c(OC)c2)ccc1O [CURCUMIN]
Activity [1]: 74.6%

Cc1ccc2c(c1)c1c(n2Cc2ccc(C(=O)NO)cn2)CCN(C)C1
IC50 [2]: 83 nM

C[C@]12CC3CC(NCc4ccc(C(=O)NO)cn4)(C1)C[C@@](C)(C3)C2
IC50 [2]: 537 nM

COc1ccc2c(c1)c1c(n2Cc2ccc(C(=O)NO)cn2)CCN(C)C1
IC50 [2]: 53 nM

Cl.O=C(NO)c1ccc(CN2c3ccccc3Sc3ccccc32)nc1
IC50 [3]: 8630 nM
IC50 [4]: 1960 nM
IC50 [5]: 6120 nM
fold change (FC) [6]: 2
Activity [7]: 6.28
Activity [8]: 5.71
fold change (FC) [9]: 2
IC50 [10]: 4300 nM
IC50 [11]: 5630 nM
Activity [12]: 4.79
Activity [13]: 82%
IC50 [14]: 115000 nM
fold change (FC) [15]: 2
IC50 [16]: 743 nM
Activity [1]: 76.3%
IC50 [2]: 2.54 nM

CC1=C(/C=C/C(C)=C/C=C/C(C)=C/C(=O)O)C(C)(C)CCC1 [TRETINOIN]
Activity [7]: 2.3
Activity [8]: 2.07
Activity [12]: 2.13

O=C(/C=C/c1ccc(CN2c3ccccc3Sc3ccccc32)cc1)NO
IC50 [2]: 463 nM

Oc1c(I)cc(Cl)c2cccnc12 [CLIOQUINOL]
inhibition [17]: 38.9%
Activity [18]: Active
Activity [13]: 86.2%

CCNC(=O)Cn1cc(CN2c3ccccc3Sc3ccccc32)cn1
IC50 [2]: > 1000 nM

CNC(=O)Cn1cc(CN2c3ccccc3Sc3ccccc32)cn1
IC50 [2]: > 1000 nM

O=C(Cn1cc(CN2c3ccccc3Sc3ccccc32)cn1)NO
IC50 [2]: > 1000 nM

CNC(=O)c1ccc(CN2c3ccccc3Sc3ccccc32)nc1
IC50 [2]: > 1000 nM

CN(Cc1ccc(C(=O)NO)cn1)C12CC3C[C@@](C)(C1)C[C@](C)(C3)C2
IC50 [2]: 835 nM

O=C(CCc1ccc(CN2c3ccccc3Sc3ccccc32)cc1)NO
IC50 [2]: 343 nM

CNC(=O)c1ccc(CN(C)C23CC4C[C@@](C)(C2)C[C@](C)(C4)C3)nc1
IC50 [2]: > 1000 nM

O=C(NO)c1ccc(CN2c3ccccc3Sc3ccccc32)nc1 [listing 1 of 2 here]
IC50 [2]: 11 nM

CCNC(=O)c1ccc(CN2c3ccccc3Sc3ccccc32)nc1
IC50 [2]: > 1000 nM

O=C(NO)c1coc(CN2c3ccccc3Sc3ccccc32)n1
IC50 [2]: 884 nM

O=C(NO)c1ccc(CN2c3ccccc3Sc3ccccc32)nc1 [listing 2 of 2 here]
Selectivity ratio [19]: 772
inhibition [20]: 50%
inhibition [21]: Active
Selectivity ratio [22]: 3400
Selectivity ratio [23]: 2410
Activity [24]: Active
Selectivity ratio [25]: 292
Activity [18]: 40%
Selectivity ratio [26]: 1690
inhibition [27]: Dose-Dependent Effect
Selectivity ratio [28]: 2220
inhibition [29]: Dose-Dependent Effect
